# Assay results published in patent publication US20240115654A1, “INTRAVENOUS ADMINISTRATION OF ENGINEERED ANTIMICROBIAL AMPHIPHILIC PEPTIDES” (priority 2021, published 2024).
# Peptide text beside a SMILES is read from it.
# Experiments:
# Assay type in all cases: cell-based
# [1] = system: Acinetobacter baumannii ATCC 19606 (non-MDR); conditions: ATCC 19606
# Experimental: (§1) Each peptide was formulated in PBS buffer prior to testing. Peptides of SEQ ID NO:5 and SEQ ID NO:8 were brought up in 100% DMSO with 0.002% polysorbate-80 at 1.28 mg/mL (40× the highest final test concentration of 32 mcg/mL). Final test concentration of DMSO was 2.5% in the assay at the first dilution for those two compounds.
# (§2) Mueller Hinton II broth (MHB II; BD; Lot Nos. 6258541 and 7143896) was used for MIC testing of aerobic organisms. 0.002% polysorbate 80 (P80) was added to the test medium.
# (§3) MIC values were determined using a broth microdilution procedure described by CLSI (1, 3). Automated liquid handlers (Multidrop 384, Labsystems, Helsinki, Finland; Biomek 2000 and Biomek FX, Beckman Coulter, Fullerton CA) were used to conduct serial dilutions and liquid transfers.
# (§4) To prepare the drug mother plates, which would provide the serial peptide dilutions for the replicate daughter plates, the wells of columns 2-12 of standard 96-well microdilution plates (Costar 3795) were filled with 150 μl of the designated diluent for each row of peptide. The test articles and comparator compounds (300 μl at 40× the highest concentration to be tested) were dispensed into the appropriate wells in column 1. The Biomek 2000 was then used to make 2-fold serial dilutions in the mother plates from column 1 through column 11. The wells of Column 12 contained no drug and served as the organism growth control wells for the assay.
# (§5) The daughter plates were loaded with 185 μL per well of MHB II using the Multidrop 384. The daughter plates were completed on the Biomek FX instrument which transferred 5 uL of peptide solution from each well of a mother plate to the corresponding well of each daughter plate in a single step. A standardized inoculum of each test organism was prepared per CLSI methods. The inoculum for each organism was dispensed into sterile reservoirs divided by length (Beckman Coulter), and the Biomek 2000 was used to inoculate the plates. Daughter plates were placed on the Biomek 2000 work surface in reverse orientation so that inoculation took place from low to high drug concentration. The plates were then inoculated with 10 μL of the inoculum resulting in a final cell density of approximately 5×10^5 CFU/mL, per well.
# (§6) Plates were stacked 3-4 high, covered with a lid on the top plate, placed in plastic bags, and incubated at 35° C. for 16 to 20 hrs. Following incubation, the microplates were removed from the incubator and viewed from the bottom using a plate viewer. […] The MIC was read and recorded as the lowest concentration of peptide that inhibited visible growth of the organism.
# [2] = system: Enterococcus faecium ATCC 51559 (VRE); conditions: ATCC 51559
# Experimental: as §1, §2, §3, §4, §5, §6
# [3] = system: Staphylococcus aureus ATCC 29213 (MSSA; QC); conditions: ATCC 29213
# Experimental: as §1, §2, §3, §4, §5, §6
# [4] = system: Pseudomonas aeruginosa ATCC BAA-2109 (MDR); conditions: ATCC BAA-2109
# Experimental: as §1, §2, §3, §4, §5, §6
# [5] = system: Enterococcus faecalis ATCC 29212 (VSE; QC); conditions: ATCC 29212
# Experimental: as §1, §2, §3, §4, §5, §6
# [6] = system: Klebsiella pneumoniae ATCC BAA-1705 (KPC); conditions: ATCC BAA-1705
# Experimental: as §1, §2, §3, §4, §5, §6
# [7] = system: Escherichia coli ATCC BAA-2471 (NDM-1); conditions: ATCC BAA-2471
# Experimental: as §1, §2, §3, §4, §5, §6
# [8] = system: Escherichia coli ATCC 25922 (QC); conditions: ATCC 25922
# Experimental: as §1, §2, §3, §4, §5, §6
# [9] = system: Staphylococcus aureus NRS382 (USA100; HA-MRSA); conditions: USA100
# Experimental: as §1, §2, §3, §4, §5, §6
# [10] = system: Escherichia coli ATCC 35218 (ESBL); conditions: ATCC 35218
# Experimental: as §1, §2, §3, §4, §5, §6
# [11] = system: Enterococcus faecalis ATCC 700802 (V583 VRE); conditions: ATCC 700802
# Experimental: as §1, §2, §3, §4, §5, §6
# [12] = system: Streptococcus pneumoniae ATCC 49619 (QC); conditions: ATCC 49619
# Experimental: as §1, §2, §3, §4, §5, §6
# [13] = system: Streptococcus pyogenes ATCC 49399; conditions: ATCC 49399
# Experimental: as §1, §2, §3, §4, §5, §6
# [14] = system: Staphylococcus aureus ATCC 43300 (MRSA); conditions: ATCC 43300
# Experimental: as §1, §2, §3, §4, §5, §6
# [15] = system: Pseudomonas aeruginosa ATCC 27853 (non-MDR; QC); conditions: ATCC 27853
# Experimental: as §1, §2, §3, §4, §5, §6
# [16] = system: Acinetobacter baumannii ATCC BAA-1797 (MDR); conditions: ATCC BAA-1797
# Experimental: as §1, §2, §3, §4, §5, §6
Structure (SMILES),MIC [1] [µg/mL],MIC [2] [µg/mL],MIC [3] [µg/mL],MIC [4] [µg/mL],MIC [5] [µg/mL],MIC [6] [µg/mL],MIC [7] [µg/mL],MIC [8] [µg/mL],MIC [9] [µg/mL],MIC [10] [µg/mL],MIC [11] [µg/mL],MIC [12] [µg/mL],MIC [13] [µg/mL],MIC [14] [µg/mL],MIC [15] [µg/mL],MIC [16] [µg/mL]
CC[C@H](C)[C@H](N)C(=O)N[C@@H](CCCNC(=N)N)C(=O)N[C@@H](CCCNC(=N)N)C(=O)N[C@@H](CCCNC(=N)N)C(=O)N[C@@H](CCCNC(=N)N)C(=O)N[C@@H](CCCNC(=N)N)C(=O)N[C@@H](CCCNC(=N)N)C(=O)N[C@H](C(=O)N[C@@H](CCCNC(=N)N)C(=O)N[C@@H](CCCNC(=N)N)C(=O)N[C@@H](CCCNC(=N)N)C(=O)N[C@@H](CCCNC(=N)N)C(=O)N[C@@H](CCCNC(=N)N)C(=O)N[C@@H](CCCNC(=N)N)C(=O)O)[C@@H](C)CC [SEQ ID NO: 2] (H-IRRRRRRIRRRRRR-OH; N-terminus and C-terminus assumed),32,16,16,8,>32,>32,32,16,8,16,>32,>32,32,16,>32,–
CC(C)[C@H](N)C(=O)N[C@@H](Cc1c[nH]c2ccccc12)C(=O)N[C@@H](CCCNC(=N)N)C(=O)N[C@@H](Cc1c[nH]c2ccccc12)C(=O)N[C@H](C(=O)N[C@@H](CCCNC(=N)N)C(=O)N[C@@H](CCCNC(=N)N)C(=O)N[C@H](C(=O)N[C@@H](Cc1c[nH]c2ccccc12)C(=O)N[C@@H](CCCNC(=N)N)C(=O)N[C@@H](Cc1c[nH]c2ccccc12)C(=O)N[C@H](C(=O)N[C@@H](CCCNC(=N)N)C(=O)N[C@@H](CCCNC(=N)N)C(=O)N[C@H](C(=O)N[C@@H](Cc1c[nH]c2ccccc12)C(=O)N[C@@H](CCCNC(=N)N)C(=O)N[C@@H](Cc1c[nH]c2ccccc12)C(=O)N[C@H](C(=O)N[C@@H](CCCNC(=N)N)C(=O)N[C@@H](CCCNC(=N)N)C(=O)O)C(C)C)C(C)C)C(C)C)C(C)C)C(C)C [SEQ ID NO: 5] (H-VWRWVRRVWRWVRRVWRWVRR-OH; N-terminus and C-terminus assumed),16,8,16,16,16,>32,32,16,8,16,16,32,32,8,>32,–
CC(C)[C@H](N)C(=O)N[C@@H](Cc1c[nH]c2ccccc12)C(=O)N[C@@H](CCCNC(=N)N)C(=O)N[C@@H](Cc1c[nH]c2ccccc12)C(=O)N[C@H](C(=O)N[C@@H](CCCNC(=N)N)C(=O)N[C@@H](CCCNC(=N)N)C(=O)N[C@H](C(=O)N[C@@H](Cc1c[nH]c2ccccc12)C(=O)N[C@@H](CCCNC(=N)N)C(=O)N[C@@H](Cc1c[nH]c2ccccc12)C(=O)N[C@H](C(=O)N[C@@H](CCCNC(=N)N)C(=O)N[C@@H](CCCNC(=N)N)C(=O)O)C(C)C)C(C)C)C(C)C [SEQ ID NO: 6] (H-VWRWVRRVWRWVRR-OH; N-terminus and C-terminus assumed),0.5,0.5,0.5,8,2,4,1,2,0.5,1,4,8,4,0.5,16,0.5
CC[C@H](C)[C@H](N)C(=O)N[C@@H](CCCNC(=N)N)C(=O)N[C@@H](CCCNC(=N)N)C(=O)N[C@H](C(=O)N[C@H](C(=O)N[C@@H](CCCNC(=N)N)C(=O)N[C@@H](CCCNC(=N)N)C(=O)N[C@H](C(=O)N[C@@H](CCCNC(=N)N)C(=O)N[C@@H](CCCNC(=N)N)C(=O)N[C@H](C(=O)N[C@H](C(=O)N[C@@H](CCCNC(=N)N)C(=O)N[C@@H](CCCNC(=N)N)C(=O)N[C@H](C(=O)N[C@@H](CCCNC(=N)N)C(=O)N[C@@H](CCCNC(=N)N)C(=O)N[C@H](C(=O)N[C@H](C(=O)N[C@@H](CCCNC(=N)N)C(=O)N[C@@H](CCCNC(=N)N)C(=O)O)[C@@H](C)CC)[C@@H](C)CC)[C@@H](C)CC)[C@@H](C)CC)[C@@H](C)CC)[C@@H](C)CC)[C@@H](C)CC)[C@@H](C)CC [SEQ ID NO: 4] (H-IRRIIRRIRRIIRRIRRIIRR-OH; N-terminus and C-terminus assumed),8,4,8,4,8,32,4,4,4,8,8,16,16,4,8,8
CC[C@H](C)[C@H](N)C(=O)N[C@@H](CCCNC(=N)N)C(=O)N[C@@H](CCCNC(=N)N)C(=O)N[C@@H](CCCNC(=N)N)C(=O)N[C@H](C(=O)N[C@@H](CCCNC(=N)N)C(=O)N[C@@H](CCCNC(=N)N)C(=O)N[C@H](C(=O)N[C@@H](CCCNC(=N)N)C(=O)N[C@@H](CCCNC(=N)N)C(=O)N[C@@H](CCCNC(=N)N)C(=O)N[C@H](C(=O)N[C@@H](CCCNC(=N)N)C(=O)N[C@@H](CCCNC(=N)N)C(=O)N[C@H](C(=O)N[C@@H](CCCNC(=N)N)C(=O)N[C@@H](CCCNC(=N)N)C(=O)N[C@@H](CCCNC(=N)N)C(=O)N[C@H](C(=O)N[C@@H](CCCNC(=N)N)C(=O)N[C@@H](CCCNC(=N)N)C(=O)O)[C@@H](C)CC)[C@@H](C)CC)[C@@H](C)CC)[C@@H](C)CC)[C@@H](C)CC [SEQ ID NO: 3] (H-IRRRIRRIRRRIRRIRRRIRR-OH; N-terminus and C-terminus assumed),8,4,8,2,32,32,4,4,8,4,>32,32,16,8,4,–
